Test results as given in US20110124069A1, “PRODUCTION METHOD” (priority 2008, published 2011).

What was measured:
[1] = system: E. coli DH5alpha araB glpK mutant with plasmid pDP_mgdf; assay: Growth on glucose or glycerol as carbon source, glpK mutant with plasmid pDP_mgdf; assay type: cell-based; conditions: carbon source 10 g/l, 37° C., oxic, 5 days
Excerpt: (§1) Genes gldA from E. coli encoding […], dhaK from Citrobacter freundii encoding dihydroxyacetone kinase (dhaK) and fucO from E. coli encoding propanediol-oxidoreductase were cloned in plasmid pB2araJ to give plasmid pDP_gdf. Plasmid pDP_mgdf additionally contains methylglyoxal synthase from E. coli. According to known biochemical pathways, propanediol oxidoreductase is not relevant for this example. However, we tested plasmid pDP_gdf and its derivative, pDP_mgdf for functional complementation of a glpK-knock out, since these plasmids are relevant for recombinant 1,2-PD production.
(§2) Thus, an inducible unregulated pathway independent of the endogenous route to metabolise glycerol was established. The biomass finally obtained is equal or even higher compared to growth of a control strain (DH5alpha[…]araB) or when glucose is the substrate for growth.

[2] = system: E. coli MG1655; assay: Biomass production of E. coli MG1655 on crude or pure glycerol; assay type: cell-based; conditions: oxic conditions, unregulated pH, cultivation tubes
Protocol: E. coli was cultured in a defined minimal medium that was designed to contain low levels of phosphate, since phosphate is a known inhibitor of methyglyoxal synthase. Per liter, the medium contained: E. coli strains were routinely propagated in cultivation tubes (total volume 30 ml. Inoculum 5 ml) or glass bottles sealed with rubber-stoppers (total volume 12 ml, inoculum 10 ml) for creating semi-anoxic conditions. The term “cultivation under oxic conditions” implies cultivation in non-sealed containments with agitation. Semi-anoxic in that context means cultivation of strains without agitation in medium that was prepared under oxic conditions and in closed containments, e.g. bottles sealed with rubber-stoppers upon inoculation to avoid diffusing in of external oxygen. Cultivation times varied between 2 and 5 days, for oxic and semi-anoxic conditions, respectively. […] [table]

[3] = system: E. coli DH5alpha araB glpK mutant; assay: Growth on glucose or glycerol as carbon source, glpK mutant; assay type: cell-based; conditions: no plasmid, carbon source 10 g/l, 37° C., oxic, 5 days
Excerpt: as §1, §2

[4] = system: E. coli MG1655; assay: Potential of impurities in crude glycerol to substitute for macro-elements of minimal medium (biomass production); assay type: cell-based; conditions: glycerol 10 g/l, oxic, unregulated pH
[5] = system: E. coli DH5alpha araB-knockout; assay: Growth on glucose or glycerol as carbon source, control strain; assay type: cell-based; conditions: no plasmid, carbon source 10 g/l, 37° C., oxic, 5 days
Excerpt: as §1, §2

[6] = system: E. coli DH5alpha araB glpK mutant with plasmid pDP_gdf; assay: Growth on glucose or glycerol as carbon source, glpK mutant with plasmid pDP_gdf; assay type: cell-based; conditions: carbon source 10 g/l, 37° C., oxic, 5 days
Excerpt: as §1, §2

[7] = system: E. coli MG1655 wild-type; assay: Toxicity of methylglyoxal, growth inhibition of wild-type; assay type: cell-based; conditions: minimal medium with pure glycerol 10 g/l; microtiterplates, 37° C.; OD580 48.5 h after inoculation
Protocol: (§3) E. coli MG1655 wild-type or mutants inactivated in the genes gloA and gloB, respectively, were cultivated in minimal-medium with pure-glycerol (10 g/l) as source for carbon and energy containing different amounts of methylglyoxal. Tests for methylglyoxal indicated a period of at least 72 h of chemical stability. E. coli was cultivated in microtiterplates without agitation at 37° C. under a humid atmosphere. Growth was determined at OD580 48.5 h after inoculation (FIG. 1; black bars, E. coli MG1655 wild-type; grey bars, E. coli MG1655 gloA-mutant; hatched bars, E. coli MG1655 gloB-mutant).

[8] = system: E. coli MG1655 gloB-mutant; assay: Toxicity of methylglyoxal, growth inhibition of gloB-mutant; assay type: cell-based; conditions: OD580 48.5 h after inoculation
Protocol: as §3

[9] = Chemical stability of methylglyoxal; assay type: physicochemical
Protocol: as §3

[10] = system: E. coli MG1655 gloA-mutant; assay: Toxicity of methylglyoxal, growth inhibition of gloA-mutant; assay type: cell-based; conditions: gloA (glyoxylase I) mutant, especially sensitive; OD580 48.5 h after inoculation
Protocol: as §3

Row | Structure (SMILES) | Biomass production OD580 [1] [OD580] | Biomass production [OD580] Ø ([2]; substrate 0.63 g/l) [OD580] | Biomass production [OD580] Ø ([2]; substrate 1.25 g/l) [OD580] | Biomass production [OD580] Ø ([2]; substrate 2.5 g/l) [OD580] | Biomass production [OD580] Ø ([2]; substrate 10 g/l) [OD580] | Biomass production [OD580] Ø ([2]; substrate 20 g/l) [OD580] | Biomass production [OD580] Ø ([2]; substrate 40 g/l) [OD580] | Biomass production OD580 [3] [OD580] | Biomass production [OD580] Ø ([4]; culture broth devoid of nitrogen) [OD580] | Biomass production [OD580] Ø ([4]; culture broth devoid of none) [OD580] | Biomass production [OD580] Ø ([4]; culture broth devoid of phosphate) [OD580] | Biomass production [OD580] Ø ([4]; culture broth devoid of sulfate) [OD580] | Biomass production [OD580] Ø ([4]; culture broth devoid of trace-elements) [OD580] | Biomass production OD580 [5] [OD580] | Biomass production OD580 [6] [OD580] | extracellular concentration of methylglyoxal at which inhibition of growth was observed [7] [mM] | sensitivity of growth to methylglyoxal compared with wild-type [8] | period of chemical stability [9] | sensitivity of growth to methylglyoxal compared with wild-type [10]
1 | OCC(O)CO [pure glycerol, glycerol] | 5.5 | 0.5 | 0.6 | 1.2 | 5.0 | 6.0 | 5.7 | 0.1 | 1.1 | 2.5 | 1.2 | 1.0 | 2.4 | 2.0 | 4.5 | – | – | – | –
2 | CC(=O)C=O [methylglyoxal] | – | – | – | – | – | – | – | – | – | – | – | – | – | – | – | ≥ 2.5 | significantly more sensitive | at least 72 h | significantly more sensitive
